In US9549560B2, “Pesticidal compositions and related methods” (DOW AGROSCIENCES LLC, priority 2013, dated 2017):

Legend:
[1] = tested on: Green Peach Aphid (Myzus persicae); assay: Bioassay for Green Peach Aphid (GPA) (MYZUPE), foliar spray on cabbage seedlings; assay type: in vivo; settings: 72 h, 200 ppm foliar spray, graded after three days, Abbott corrected % control, read-out: % Control (or Mortality) rating, GPA
Description: Cabbage seedlings grown in 3-inch pots, with 2-3 small (3-5 cm) true leaves, were used as test substrate. The seedlings were infested with 20-50 GPA (wingless adult and nymph stages) one day prior to chemical application. Four pots with individual seedlings were used for each treatment. Test compounds (2 mg) were dissolved in 2 mL of acetone/methanol (1:1) solvent, forming stock solutions of 1000 ppm test compound. The stock solutions were diluted 5× with 0.025% Tween 20 in H2O to obtain the solution at 200 ppm test compound. A hand-held aspirator-type sprayer was used for spraying a solution to both sides of […] leaves until runoff. Reference plants (solvent check) were sprayed with the diluent only containing 20% by volume of acetone/methanol (1:1) solvent. Treated plants were held in a holding room for three days at approximately 25° C. and ambient relative humidity (RH) prior to grading. Evaluation was conducted by counting the number of live aphids per plant under a microscope. Percent control was measured by using Abbott's correction formula (W. S. Abbott, “A Method of Computing the Effectiveness of an Insecticide,” J. Econ. Entomol. 18 (1925), pp. 265-267) as follows. Corrected % Control=100*(X−Y)/X
X=No. of live aphids on solvent check plants and
Y=No. of live aphids on treated plants
(§1) Biological Data for Green Peach Aphid (GPA) (MYZUPE) and Sweetpotato Whitefly-crawler (WF) (BEMITA)” (See Table Section).

[2] = tested on: Sweetpotato Whitefly-Crawler (Bemisia tabaci); assay: Insecticidal test for Sweetpotato Whitefly-Crawler (WF) (BEMITA) in foliar spray assay on cotton plants; assay type: in vivo; settings: 216 h, 200 ppm foliar spray, graded after 9 days, Abbott corrected % control, read-out: % Control (or Mortality) rating, WF
Description: Cotton plants (Gossypium hirsutum) grown in 3-inch pots, with 1 small (4-5 cm) true leaves, were used as test substrate. The plants were infested with 200-400 whitefly eggs 4-5 days prior to chemical application. Four pots with individual plants were used for each treatment. Test compounds (2 mg) were dissolved in 1 mL of acetone solvent, forming stock solutions of 2000 ppm test compound. The stock solutions were diluted 10× with 0.025% Tween 20 in H2O (diluents) to obtain the solution at 200 ppm test compound. A hand-held aspirator-type sprayer was used for spraying a solution to both sides of cotton leaves until runoff. Reference plants (solvent check) were sprayed with the diluent only containing 10% by volume of acetone solvent. Treated plants were held in a holding room for 9 days at approximately 25° C. and ambient relative humidity (RH) prior to grading. Evaluation was conducted by counting the number of live 3-4 nymph stage per plant under a microscope. Percent control was measured by using Abbott's correction formula (W. S. Abbott, “A Method of Computing the Effectiveness of an Insecticide,” J. Econ. Entomol. 18 (1925), pp. 265-267) as follows. Corrected % Control=100*(X−Y)/X
X=No. of live nymphs on solvent check plants and
Y=No. of live nymphs on treated plants.
as §1

For CCN(C(=O)C(C)C[S+](C)[O-])c1cn(-c2ccc[n+]([O-])c2)nc1Cl (centres unmarked) [Compound F6], the mortality at 200 ppm [1] was 80 to 100% and the mortality at 200 ppm [2] was 80 to 100%.
For C#CCN(C(=O)CCSCC1CC1(F)F)c1cn(-c2ccc[n+]([O-])c2)nc1Cl (centres unmarked) [Compound P65, 3-(3-Chloro-4-(3-(((2,2-difluorocyclopropyl)methyl)thio)-N-(prop-2-yn-1-yl)propanamido)-1H-pyrazol-1-yl)pyridine 1-oxide], the mortality at 200 ppm [1] was 80 to 100% and the mortality at 200 ppm [2] was 80 to 100%.
In the case of C#CCN(C(=O)C(C)CSCCC(F)(F)F)c1cn(-c2ccc[n+]([O-])c2)nc1Cl (centres unmarked) [FA4, 3-(3-Chloro-4-(2-methyl-N-(prop-2-yn-1-yl)-3-((3,3,3trifluoropropyl)thio)propanamido)-1H-pyrazol-1-yl)pyridine 1-oxide], the mortality at 200 ppm [1] is reported as 80 to 100% and the mortality at 200 ppm [2] is reported as 80 to 100%.
CC(C(=O)N(CC1CC1)c1cn(-c2ccc[n+]([O-])c2)nc1Cl)S(C)(=O)=O (centres unmarked) [FA14, 3-(3-chloro-4-(N-(cyclopropylmethyl)-2-(methylsulfonyl)propanamido)-1H-pyrazol-1-yl)pyridine 1-oxide] gave a mortality at 200 ppm [1] of 80 to 100%.
Work on CN(C(=O)CC[S+]([O-])CC1CC1(F)F)c1cn(-c2ccc[n+]([O-])c2)nc1Cl (centres unmarked) [Compound P57, 3-(3-Chloro-4-(3-(((2,2-difluorocyclopropyl)methyl)sulfinyl)-N-methylpropanamido)-1H-pyrazol-1-yl)pyridine 1-oxide] yielded a mortality at 200 ppm [1] of 80 to 100% and a mortality at 200 ppm [2] of 80 to 100%.
With CCNc1cn(-c2ccc[n+]([O-])c2)nc1Cl [Compound C1, 3-(3-chloro-4-(ethylamino)-1H-pyrazol-1-yl)pyridine 1-oxide] the mortality at 200 ppm [1] was 0 to 80% and the mortality at 200 ppm [2] was 0 to 80%.
For CN(C(=O)CC[S+]([O-])CCC(F)(F)F)c1cn(-c2ccc[n+]([O-])c2)nc1Cl (centres unmarked) [Compound P2, 3-(3-chloro-4-(N-methyl-3-((3,3,3-trifluoropropyl)sulfinyl)propanamido)-1H-pyrazol-1-yl)pyridine 1-oxide], the mortality at 200 ppm [1] was 80 to 100% and the mortality at 200 ppm [2] was 80 to 100%.
CCN(C(=O)C(C)CSCCC(F)(F)F)c1cn(-c2ccc[n+]([O-])c2)nc1C (centres unmarked) [FA1, 3-(4-(N-Ethyl-2-methyl-3-((3,3,3-trilluoropropyl)thio)propanamido)-3-methyl-1H-pyrazol-1-yl)pyridine 1-oxide] gave a mortality at 200 ppm [1] of 80 to 100% and a mortality at 200 ppm [2] of 80 to 100%.
With CCN(C(=O)C(C)C[S+]([O-])CCC(F)(F)F)c1cn(-c2cc(F)c[n+]([O-])c2)nc1Cl (centres unmarked) [FA6, 3-(3-Chloro-4-(N-ethyl-2-methyl-3-((3,3,3-trifluoropropyl)sulfinyl)propanamido)-1H-pyrazol-1-yl)-5-fluoropyridine 1-oxide] the mortality at 200 ppm [1] was 80 to 100% and the mortality at 200 ppm [2] was 80 to 100%.
Work on CNc1cn(-c2ccc[n+]([O-])c2)nc1Cl [CA3, 3-(3-Chloro-4-(methylamino)-1H-pyrazol-1-yl)pyridine 1-oxide] yielded a mortality at 200 ppm [1] of 80 to 100% and a mortality at 200 ppm [2] of 0 to 80%.
In the case of CCN(C(=O)CCSCCC(F)(F)F)c1cn(-c2ccc[n+]([O-])c2)nc1C [Compound P18, 3-(4-(N-Ethyl-3-((3,3,3-trilluoropropyl)thio)propanamido)-3-methyl-1H-pyrazol-1-yl)pyridine 1-oxide], the mortality at 200 ppm [1] is reported as 80 to 100% and the mortality at 200 ppm [2] is reported as 80 to 100%.
For CCN(C(=O)C(C)C[S+]([O-])CCC(F)(F)F)c1cn(-c2ccc[n+]([O-])c2)nc1Cl (centres unmarked) [FA9, 3-(3-Chloro-4-(N-ethyl-2-methyl-3-((3,3,3-trifluoropropyl)sulfinyl)propanamido)-1H-pyrazol-1-yl)pyridine 1-oxide], the mortality at 200 ppm [1] was 80 to 100% and the mortality at 200 ppm [2] was 80 to 100%.
In the case of CCN(C(=O)C(C)CSC)c1cn(-c2ccc[n+]([O-])c2)nc1Cl (centres unmarked) [Compound F10, 3-(3-Chloro-4-(N-ethyl-2-methyl-3-(methylthio)propajamido)-1H-pyrazol-1-yl)pyridine 1-oxide], the mortality at 200 ppm [1] is reported as 80 to 100% and the mortality at 200 ppm [2] is reported as 80 to 100%.
With CCN(C(=O)CC[S+]([O-])CCC(F)(F)F)c1cn(-c2ccc[n+]([O-])c2)nc1Cl (centres unmarked) [Compound F1, 3-(3-chloro-4-(N-ethyl-3-((3,3,3-trifluoropropyl)sulfinyl)propanamido)-1H-pyrazol-1-yl)pyridine 1-oxide] the mortality at 200 ppm [1] was 80 to 100% and the mortality at 200 ppm [2] was 80 to 100%.
With CCN(C(=O)CCS(=O)(=O)CCC(F)(F)F)c1cn(-c2ccc[n+]([O-])c2)nc1Cl [Compound F13, 3-(3-chloro-4-(N-ethyl-3-((3,3,3-trifluoropropyl)sulfonyl)propanamido)-1H-pyrazol-1-yl)pyridine 1-oxide] the mortality at 200 ppm [1] was 80 to 100% and the mortality at 200 ppm [2] was 80 to 100%.
CCN(C(=O)CC[S+]([O-])CC1CC1(F)F)c1cn(-c2ccc[n+]([O-])c2)nc1Cl (centres unmarked) [Compound P49, 3-(3-Chloro-4-(3-(((2,2-difluorocyclopropyl)methyl)sulfinyl)-N-ethylpropanamido)-1H-pyrazol-1-yl)pyridine 1-oxide] gave a mortality at 200 ppm [1] of 80 to 100% and a mortality at 200 ppm [2] of 80 to 100%.
In the case of CCN(C(=O)CCSCCC(F)(F)F)c1cn(-c2ccc[n+]([O-])c2)nc1Cl [Compound F5, 3-(3-chloro-4-(N-ethyl-3-((3,3,3-trifluoropropyl)thio)propanamido)-1H-pyrazol-1-yl)pyridine 1-oxide], the mortality at 200 ppm [1] is reported as 80 to 100% and the mortality at 200 ppm [2] is reported as 80 to 100%.
CCN(C(=O)C(C)CSCCC(F)(F)F)c1cn(-c2ccc[n+]([O-])c2)nc1Cl (centres unmarked) [FA3, 3-(3-Chloro-4-(N-ethyl-2-methyl-3-((3,3,3-trifluoropropyl)thio)propanamido)-1H-pyrazol-1-yl)pyridine 1-oxide] gave a mortality at 200 ppm [1] of 80 to 100% and a mortality at 200 ppm [2] of 80 to 100%.
Work on CCN(C(=O)CCSCCCC(F)(F)F)c1cn(-c2cc(F)c[n+]([O-])c2)nc1Cl [Compound P98, 3-(3-Chloro-4-(N-ethyl-3-((4,4,4-trilluorobutyl)thio)propanamido)-1H-pyrazol-1-yl)-5-fluoropyridine 1-oxide] yielded a mortality at 200 ppm [1] of 0 to 80% and a mortality at 200 ppm [2] of 80 to 100%.
CCN(C(=O)C(C)C[S+]([O-])CCC(F)(F)F)c1cn(-c2ccc[n+]([O-])c2)nc1C (centres unmarked) [FA10, 3-(4-(N-Ethyl-2-methyl-3-((3,3,3-trifluoropropyl)sulfinyl)propanamido)-3-methyl-1H-pyrazol-1-yl)pyridine 1-oxide] gave a mortality at 200 ppm [1] of 80 to 100% and a mortality at 200 ppm [2] of 0 to 80%.
For CCN(C(=O)CC[S+]([O-])CC1CC1(F)F)c1cn(-c2cc(F)c[n+]([O-])c2)nc1Cl (centres unmarked) [Compound P93, 3-(3-Chloro-4-(3-(((2,2-difluorocyclopropyl)methyl)sulfinyl)-N-ethylpropanamido)-1H-pyrazol-1-yl)-5-fluoropyridine 1-oxide], the mortality at 200 ppm [1] was 80 to 100% and the mortality at 200 ppm [2] was 80 to 100%.
For CCN(C(=O)C(C)CS(C)(=O)=O)c1cn(-c2ccc[n+]([O-])c2)nc1Cl (centres unmarked) [Compound F12, 3-(3-Chloro-4-(N-ethyl-2-methyl-3-(methylsulfonyl)propanamido)-1H-pyrazol-1-yl) 1-oxide], the mortality at 200 ppm [1] was 80 to 100% and the mortality at 200 ppm [2] was 80 to 100%.
CN(C(=O)CCSCC1CC1(F)F)c1cn(-c2ccc[n+]([O-])c2)nc1Cl (centres unmarked) [Compound P56, 3-(3-Chloro-4-(3-(((2,2-difluorocyclopropyl)methyl)thio)-N-methylpropanamido)-1H-pyrazol-1-yl)pyridine 1-oxide] gave a mortality at 200 ppm [1] of 80 to 100% and a mortality at 200 ppm [2] of 80 to 100%.
In the case of C#CCN(C(=O)C(C)C[S+]([O-])CCC(F)(F)F)c1cn(-c2ccc[n+]([O-])c2)nc1Cl (centres unmarked) [FA7, 3-(3-Chloro-4-(2-methyl-N-(prop-2-yn-1-yl)-3-((3,3,3-trifluoropropyl)sulfinyl)propanamido)-1H-pyrazol-1-yl)pyridine 1-oxide], the mortality at 200 ppm [1] is reported as 80 to 100% and the mortality at 200 ppm [2] is reported as 80 to 100%.
Compound C#CCNc1cn(-c2ccc[n+]([O-])c2)nc1Cl [CA1, 3-(3-Chloro-4-(prop-2-yn-1-ylamino)-1H-pyrazol-1-yl)pyridine 1-oxide] has a mortality at 200 ppm [1] of 0 to 80% and a mortality at 200 ppm [2] of 0 to 80%.
CCN(C(=O)C(C)S(C)(=O)=O)c1cn(-c2ccc[n+]([O-])c2)nc1Cl (centres unmarked) [FA13, 3-(3-chloro-4-(N-ethyl-2-(methylsulfonyl)propanamido)-1H-pyrazol-1-yl)pyridine 1-oxide] showed a mortality at 200 ppm [1] of 80 to 100%.
